Source: patent US7855290B2, “Pyridine derivatives and pyrimidine derivatives (3)” (Eisai R&D Management Co., Ltd., priority 2005, dated 2010)

Legend:
[1] = tested on: Human gastric cancer cells (MKN-45); experiment: Inhibitory activity against the tumor growth of human gastric cancer cells (MKN-45) transplanted in nude mice; assay type: in vivo, BALB/c (nu/nu) mice; conditions: orally twice every day, tumor volume at fifth day, relative to control group
Experimental: Human gastric cancer cells (MNK-45) were suspended in HBSS (purchased from GIBCO BRL). The cell suspension (5×10^7 cells/ml) was transplanted under the right flank skin of seven-week-old female BALB/c (nu/nu) mice at a volume of 0.1 ml. When tumor volume of the site transplanted with MNK-45 cells grew to 100-200 mm^3, mice were grouped so that the groups might be equalized in average tumor volume. The test substance was suspended in 0.5% methylcellulose, a mixed solution of hydrochloric acid and glucose (0.1N hydrochloric acid:5% glucose=1:9) or a mixed solution of dimethyl sulfoxide-Tween-glucose (dimethyl sulfoxide:Tween 80:5% glucose (containing equimolar hydrochloric acid to the test substance)=7:13:80), were administered orally to the mice twice every day. The tumor volumes were determined at the fifth day after the initiation of the administration of the test substances. The major axis and the minor axis of tumor were measured by a caliper to calculate ½×(major axis×minor axis×minor axis) for the tumor volume. The experiment was conducted using 10 mice in the control group (solvent-administered group) and 5 mice in test substance-administered group. The ratio in tumor volume of the group for administrating the test substance relative to that of the control group was defined as a tumor proliferation rate (%).

HGFR = biological target: T1, HGFR (Homo sapiens, UniProt P08581); experiment: Inhibitory activity against the HGFR autophosphorylation using ELISA (MKN-45 cells); assay type: cell-based; conditions: 1 hr with test substance
T1 construct: endogenous in cells; host or cells: MKN-45 human gastric cancer cells
T1 sequence (P08581 25-1390): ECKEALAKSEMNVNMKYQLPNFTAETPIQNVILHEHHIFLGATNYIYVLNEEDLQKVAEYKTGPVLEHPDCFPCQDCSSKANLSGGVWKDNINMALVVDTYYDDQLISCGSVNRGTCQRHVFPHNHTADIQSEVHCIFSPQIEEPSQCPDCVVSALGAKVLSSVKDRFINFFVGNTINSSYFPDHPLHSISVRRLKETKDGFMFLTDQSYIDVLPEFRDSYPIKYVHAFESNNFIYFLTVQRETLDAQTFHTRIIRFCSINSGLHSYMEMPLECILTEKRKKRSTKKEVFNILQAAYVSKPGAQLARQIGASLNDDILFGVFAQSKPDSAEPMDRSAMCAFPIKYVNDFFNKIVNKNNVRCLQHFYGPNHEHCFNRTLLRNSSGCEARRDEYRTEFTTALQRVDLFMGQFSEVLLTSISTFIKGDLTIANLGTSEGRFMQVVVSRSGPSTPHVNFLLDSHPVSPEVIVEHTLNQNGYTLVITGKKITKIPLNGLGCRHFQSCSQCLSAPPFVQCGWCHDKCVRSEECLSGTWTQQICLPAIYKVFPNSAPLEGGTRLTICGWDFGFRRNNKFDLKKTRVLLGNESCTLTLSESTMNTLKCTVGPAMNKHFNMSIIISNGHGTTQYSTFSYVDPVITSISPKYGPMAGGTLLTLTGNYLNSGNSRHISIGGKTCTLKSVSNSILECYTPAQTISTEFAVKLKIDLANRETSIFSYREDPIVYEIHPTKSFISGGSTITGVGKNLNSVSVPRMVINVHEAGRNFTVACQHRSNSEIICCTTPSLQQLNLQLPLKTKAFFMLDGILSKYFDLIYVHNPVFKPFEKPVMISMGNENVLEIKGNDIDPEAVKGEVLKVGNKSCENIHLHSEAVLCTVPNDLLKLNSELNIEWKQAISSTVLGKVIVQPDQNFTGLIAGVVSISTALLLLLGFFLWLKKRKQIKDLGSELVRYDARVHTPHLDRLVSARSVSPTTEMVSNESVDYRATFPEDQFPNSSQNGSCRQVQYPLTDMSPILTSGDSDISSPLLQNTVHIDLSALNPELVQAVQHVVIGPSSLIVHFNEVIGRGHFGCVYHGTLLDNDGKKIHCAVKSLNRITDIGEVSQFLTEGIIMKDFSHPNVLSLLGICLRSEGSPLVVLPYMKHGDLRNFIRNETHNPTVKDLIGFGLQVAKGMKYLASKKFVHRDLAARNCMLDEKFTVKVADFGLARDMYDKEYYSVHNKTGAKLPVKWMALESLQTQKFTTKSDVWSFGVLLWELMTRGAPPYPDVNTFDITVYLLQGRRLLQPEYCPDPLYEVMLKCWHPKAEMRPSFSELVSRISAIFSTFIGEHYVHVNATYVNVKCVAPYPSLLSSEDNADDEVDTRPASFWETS
In short: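 MKN-45 gastric cancer cells, plated overnight in 1% FBS RPMI1640, treated with compound 1 h at 37° C and lysed. Lysate captured on anti-phosphotyrosine (PY20) plates, probed with anti-HGFR then HRP anti-rabbit IgG; TMB absorbance at 450 nm. Activity expressed as % of untreated extract (100%) versus lysis buffer blank (0%).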

[2] = tested on: Human umbilical vein endothelial cells (HUVECs); experiment: Inhibitory activity against the growth of vascular endothelial cells stimulated with hepatocyte growth factor; assay type: cell-based; conditions: HUVEC, HGF stimulated, third day, Cell Counting Kit-8, read-out: IC50 (cell proliferation activity)
Experimental: Human umbilical vein endothelial cells (HUVECs) were isolated according to the reported method (Shin Seikagaku Jikken Koza, “Cell culturing techniques”, p 197-202), and then cultured in a 5% CO2 incubator (37° C.) using EGM-2 medium (purchased from Clonetics) until the cells reached confluency.
HUVECs were suspended in a serum-free medium for endothelial cell culture (SFM, purchased from GIBCO RBL) containing 2% FBS. The cell suspension (2×10^4 cells/ml) was put in a cell culturing 96-well plate (purchased from NUNC, Production No. 167008) at 0.1 ml/well, and then cultured in a 5% CO2 incubator (37° C.) overnight. After the culture, each well was supplied with 50 μl of the test substance diluted with a 2% FBS-containing serum-free medium for endothelial cell culture and 50 μl of HGF (purchased from R&D) diluted at a concentration of 120 ng/ml with a 2% FBS-containing serum-free medium for endothelial cell culture, followed by culturing in a 5% CO2 incubator (37° C.). On the third day after the addition of the test substance, each well was supplied with 10 μl of Cell Counting Kit-8 (purchased from DOJINDO, Production No. 343-07623), and then the plate was incubated in a 5% CO2 incubator (37° C.) for about 2 hours. After the incubation, using a Plate Reader MTP-500 (Corona Electric), the absorbance of each well was determined at a measurement wavelength of 450 nm and a reference wavelength of 660 nm. While defining the absorbance of a well supplied with HGF and no test substance as 100% cell proliferation activity and the absorbance of the well supplied with no test substance and no HGF as 0% cell proliferation activity, the cell proliferation activity ratio (%) was calculated for each cell.

IC50 (HGFR) | Structure (SMILES) | Tumor proliferation rate (%) ([1]; Dose 30 mg/kg/time) | Tumor proliferation rate (%) ([1]; Dose 100 mg/kg/time) | IC50 [2]
21 nM | CN(C)CCN1CCN(C(=O)Nc2cc(Oc3ccc(NC(=O)C4(C(=O)Nc5ccc(F)cc5)CC4)c(F)c3)ccn2)CC1 [Example 2, N-[4-({2-[({4-[2-(Dimethylamino)ethyl]piperazin-1-yl}carbonyl)amino]pyridin-4-yl}oxy)-2-fluorophenyl]-N′-(4-fluorophenyl)cyclopropane-1,1-dicarboxamide] | 73.3% | 27.5% | 18 nM
14 nM | CN(C)CC1CCN(C(=O)Nc2cc(Oc3ccc(NC(=O)C4(C(=O)Nc5ccc(F)cc5)CC4)c(F)c3)ccn2)CC1 [Example 8, N-[4-({2-[({4-[(Dimethylamino)methyl]piperidin-1-yl}carbonyl)amino]pyridin-4-yl}oxy)-2-fluorophenyl]-N′-(4-fluorophenyl)cyclopropane-1,1-dicarboxamide] | 53% | 23.3% | 
40 nM | CN1CCC(N(C)C(=O)Nc2cc(Oc3ccc(NC(=O)C4(C(=O)Nc5ccc(F)cc5)CC4)cc3)ccn2)CC1 [Example 12] | 73.9% | 27.6% | 23 nM
